# What was measured:
# [1] = Hydrolysis kinetic catalysis constant was measured for the hydrolysis catalyzed by antibody 15C5
# [2] = Catalysis kinetic constant was measured for the hydrolysis catalyzed by antibody 15C5
# [3] = Michaelis-Menten kinetics was measured for the hydrolysis catalyzed by antibody 15C5
compound,measurement,setting,value
CC(=O)NC1COP(=O)(Oc2ccc([N+](=O)[O-])cc2)OC1 (stereo not drawn),Kuncat,[1],2.1 min⁻¹
same,k cat,[2],0.0442 s⁻¹
same,Km,[3],87 µM

# From ChEMBL document CHEMBL1149988, “Antibody catalyzed hydrolysis of a phosphotriester” (Bioorg Med Chem Lett, 1996)
